Earlier results on two compounds are cited in article PMC7918733, “Biological Profiling of Semisynthetic C19-Functionalized Ferruginol and Sugiol Analogues” (Antibiotics, 2021).

Data set [1] concerns L. donovani promastigotes. To be noted: cited from earlier work.
For the next data set, the system named is P. falciparum 3D7 strain. To be noted: chloroquine-sensitive strain; cited from earlier work.
The next data set has as its system P. falciparum K1 strain. Particulars: chloroquine-resistant strain; cited from earlier work.
Another data set has as its system HepG2. Particulars: cytotoxicity; cited from earlier work.
For the next data set, the system named is RAJI. To be noted: cytotoxicity; cited from earlier work.
In a further data set the test system is BJ. To be noted: cytotoxicity; cited from earlier work.
In a further data set the test system is HEK293. Particulars: cytotoxicity; cited from earlier work.
Another data set relates to A549 (Lung). To be noted: cited from earlier work.
A further data set has as its system Vero. Particulars: cited from earlier work.
Data set [2] deals with L. infantum promastigotes. Further details: method as in PMID 30840453. To be noted: C18-congeners, read-out: L. infantum IC50 ± SD; cited from earlier work.
Data set [3] deals with L. amazonensis promastigotes. Further details: method as in PMID 30840453. To be noted: C18-congeners, read-out: L. amazonensis IC50 ± SD; cited from earlier work.
In data set [4] the test system is L. guyanensis promastigotes. Further details: method as in PMID 30840453. Particulars: C18-congeners, read-out: L. guyanensis IC50 ± SD; cited from earlier work.
A further data set relates to L. infantum amastigotes. Further details: method as in PMID 30840453. To be noted: C18-congener, read-out: L. infantum IC50 ± SD; cited from earlier work.
For data set [5], the system named is L. amazonensis amastigotes. More on the design: method as in PMID 30840453. Particulars: C18-congener, read-out: L. amazonensis IC50 ± SD; cited from earlier work.
A further data set deals with HBL-100 (Breast). Particulars: C18-congeners; cited from earlier work.
The next data set deals with HeLa (Cervix). To be noted: C18-congeners; cited from earlier work.
For another data set, the system named is SW1573 (Lung). Particulars: C18-congeners; cited from earlier work.
Another data set has as its system T-47D (Breast). To be noted: C18-congeners; cited from earlier work.
A further data set relates to WiDr (Colon). To be noted: C18-congeners; cited from earlier work.
The next data set deals with Macrophages J774. To be noted: read-out: Macrophages J774 CC50; C18-congeners; cited from earlier work.
Data set [6] deals with GABAA receptor subtype (α1β2γ2S) (Homo sapiens, UniProt P14867+P18507+P47870). More on the design: expressed in transfected cells; host or cells: Xenopus laevis oocytes. To be noted: C18-congeners, cited from earlier work.

Read-outs that look alike come from different tables or passages of the source.

GABAA receptor subtype (α1β2γ2S), sequence (P14867 28-456): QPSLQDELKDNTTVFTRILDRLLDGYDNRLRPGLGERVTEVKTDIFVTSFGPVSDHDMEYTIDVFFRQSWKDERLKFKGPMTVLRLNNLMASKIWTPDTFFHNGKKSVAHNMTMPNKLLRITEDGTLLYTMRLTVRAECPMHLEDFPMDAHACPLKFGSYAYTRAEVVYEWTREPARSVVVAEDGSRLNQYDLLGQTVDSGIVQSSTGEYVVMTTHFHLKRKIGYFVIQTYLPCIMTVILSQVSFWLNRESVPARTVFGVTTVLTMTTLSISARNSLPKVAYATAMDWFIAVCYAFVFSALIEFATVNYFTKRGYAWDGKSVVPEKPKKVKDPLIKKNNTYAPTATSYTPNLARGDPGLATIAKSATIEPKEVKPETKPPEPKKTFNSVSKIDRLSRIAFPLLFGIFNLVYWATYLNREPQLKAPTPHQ
GABAA receptor subtype (α1β2γ2S), sequence (P47870 26-512): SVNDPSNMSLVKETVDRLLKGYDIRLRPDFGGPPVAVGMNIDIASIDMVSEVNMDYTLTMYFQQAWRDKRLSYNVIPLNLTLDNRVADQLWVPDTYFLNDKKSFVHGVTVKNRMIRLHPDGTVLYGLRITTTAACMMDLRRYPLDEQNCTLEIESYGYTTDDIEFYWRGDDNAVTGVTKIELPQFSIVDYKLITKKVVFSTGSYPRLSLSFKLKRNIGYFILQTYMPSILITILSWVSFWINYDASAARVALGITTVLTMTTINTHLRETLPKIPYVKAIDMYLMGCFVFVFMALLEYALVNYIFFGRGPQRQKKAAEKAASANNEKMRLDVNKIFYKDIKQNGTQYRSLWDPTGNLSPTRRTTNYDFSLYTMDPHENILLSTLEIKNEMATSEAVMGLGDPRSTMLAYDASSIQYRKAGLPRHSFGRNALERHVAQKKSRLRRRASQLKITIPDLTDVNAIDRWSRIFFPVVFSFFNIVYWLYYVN
GABAA receptor subtype (α1β2γ2S), sequence (P18507 40-467 isoform P18507-1 limits assumed): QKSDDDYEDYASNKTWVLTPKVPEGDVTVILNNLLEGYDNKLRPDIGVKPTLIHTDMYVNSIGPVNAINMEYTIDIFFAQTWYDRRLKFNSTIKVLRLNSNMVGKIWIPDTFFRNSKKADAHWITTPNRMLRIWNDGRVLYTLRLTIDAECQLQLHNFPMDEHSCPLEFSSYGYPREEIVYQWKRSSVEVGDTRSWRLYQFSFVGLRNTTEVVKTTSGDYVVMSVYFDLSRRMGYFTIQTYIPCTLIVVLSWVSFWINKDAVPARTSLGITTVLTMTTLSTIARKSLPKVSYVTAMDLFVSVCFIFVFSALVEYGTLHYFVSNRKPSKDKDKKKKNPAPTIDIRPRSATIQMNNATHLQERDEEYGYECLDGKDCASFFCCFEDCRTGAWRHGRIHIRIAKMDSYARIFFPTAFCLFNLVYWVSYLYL

On to `CC(C)c1cc2c(cc1O)[C@@]1(C)CCCC(C)(C)[C@@H]1CC2` [Compound 1, ferruginol], for which the IC50 in data set [1] (read-out: L. donovani IC50) was 12.2 µM. For the same compound, the EC50 with P. falciparum 3D7 strain is 2470 nM; with P. falciparum K1 strain, 1330 nM; with HepG2, more than 25 µM; in the data set on RAJI it was 11.5 µM; in the data set with BJ, 19.6 µM; in the data set on HEK293 it was more than 25 µM. The GI50 in the data set with A549 (Lung) is 30.7 ± 5.2 µM. Moreover, the CC50 with Vero was more than 16.6 µM.
With `COC(=O)[C@]1(C)CCC[C@]2(C)c3cc(C(C)=O)c(C(C)C)cc3CC[C@@H]12` [Compound 9b], the IC50 in [2] was 2500 ± 600 nM; in data set [1] (C18-congeners, read-out: L. donovani IC50 ± SD), 14.8 ± 0.9 µM; in data set [3] it was 11.6 ± 0.6 µM; in data set [4] it was 14.2 ± 0.4 µM; in the data set with L. infantum amastigotes, 37.2 ± 2.4 µM; in data set [5] it was 31.4 ± 6.2 µM. Further, the 50% growth inhibitory concentration (GI50) is 18 ± 2.3 µM in the data set on A549 (Lung) (C18-congeners); 15 ± 1.2 µM in the data set with HBL-100 (Breast); 11 ± 1 µM in the data set on HeLa (Cervix); 11 ± 4.6 µM in the data set on SW1573 (Lung); 10 ± 1.5 µM with T-47D (Breast); 17 ± 2.4 µM with WiDr (Colon). Also, the CC50 with Macrophages J774 was 130 ± 8.9 µM. Also, the “IGABA Potentiation of 10 µM (%)” value in data set [6] (10 µM) is 2.7 ± 0.9%. Also, the “IGABA Potentiation of 100 µM (%)” value in data set [6] (100 µM) was −2.9 ± 5.1%.

By IC50 is commonly meant the concentration at which inhibition is half-maximal. Usually EC50 stands for the concentration giving half of the maximal effect. A word on the GI50: it is the concentration that inhibits growth by half.
